In brackets after ≈: the same amount, converted by molar mass. Entries after “also recorded” stand apart in the source; their conditions may differ. Read-outs that look alike come from different tables or passages of the source.
Columns and labels:
[1] = system: MDA-MB-231 triple negative breast cancer cells; assay: Antiproliferative SRB assay, MDA-MB-231; type: cell-based; details: for IC50: mean ± SEM
Protocol: FIG. 1. […] Cell death measured by SRB assay after 72 hour of compound exposure (n≥3 biological replicates, error bars show SEM). IC50 values given as mean±SEM from ≥3 biological replicates.
To investigate the feasibility of developing a class of antitumor antibiotics based upon the DNM scaffold, the ability of the DNM to exert an antiproliferative effect against MDA-MB-231 breast cancer cells was evaluated.

S. aureus = assay: Antibacterial MIC, microbroth dilution, S. aureus; type: cell-based; details: for MIC: Staphylococcus aureus
Protocol: (§1) To investigate this possibility, the antibacterial effects of the DNM derivatives was assessed against strains of E. coli, S. aureus, and MRSA using the microbroth dilution method (Table 2).

E. coli = assay: Antibacterial MIC, microbroth dilution, E. coli; type: cell-based; details: for MIC: Escherichia coli
Protocol: as §1

MRSA = assay: Antibacterial MIC, microbroth dilution, MRSA; type: cell-based, S. aureus; details: for MIC: Staphylococcus aureus, MRSA, microbroth dilution
Protocol: as §1

HL-60 = assay: Cell viability Alamar Blue assay, HL-60; type: cell-based; details: Homo sapiens, HL-60, 72 h, Leukemia, mean ± SEM
From the text: (§2) Topoisomerase inhibitors such as DOX are used as single agent and in combination therapy to treat a wide-range of cancer types.

ES-2 = assay: Antiproliferative SRB assay, ES-2; type: cell-based; details: Homo sapiens, ES-2, 72 h, Cervical cancer (footnote f), mean ± SEM
From the text: as §2

HOS = assay: Antiproliferative SRB assay, HOS; type: cell-based; details: Homo sapiens, 72 h, Osteosarcoma, mean ± SEM
From the text: as §2

IMR32 = assay: Antiproliferative SRB assay, IMR32; type: cell-based; details: Homo sapiens, IMR-32, 72 h, Neuroblastoma, mean ± SEM
From the text: as §2

HeLa = assay: Antiproliferative SRB assay, HeLa; type: cell-based; details: Homo sapiens, 72 h, Ovarian cancer (footnote e), mean ± SEM
From the text: as §2

panel of cancer cells = assay: Average over panel of 10 cancer cell lines; type: cell-based; details: 72 hour, read-out: Average (mean) IC50 over the cell line panel
From the text: as §2

BT-474 = assay: Antiproliferative SRB assay, BT-474; type: cell-based; details: Homo sapiens, BT-474, 72 h, Breast cancer, mean ± SEM
From the text: as §2

Jurkat = assay: Cell viability Alamar Blue assay, Jurkat; type: cell-based; details: Homo sapiens, 72 h, Leukemia, mean ± SEM
From the text: as §2

H460 = assay: Antiproliferative SRB assay, H460; type: cell-based; details: Homo sapiens, NCI-H460, 72 h, Lung cancer, mean ± SEM
From the text: as §2

Top2cc = molecular target: T1, Top2cc (Homo sapiens, UniProt P11388); assay: ICE assay for Top2α-DNA complexes in H460 cells; type: cell-based; details: 50 μM
T1 construct: endogenous in cells; host or cells: H460
From the text: FIG. 3. DNM derivatives are dual Top1/Top2 inhibitors with different modes of inhibition. (a) Inhibition of decatenating ability of Top2α with increasing concentrations of ETP, 6DNM-NH3, 6DNM-Pyr, and Ph-6DNM-NH3. K, kinetoplast DNA; OC, open circular; R, relaxed. (b) Inhibition of relaxing ability of Top1 with increasing concentrations of CPT, 6DNM-NH3, 6DNM-Pyr, and Ph-6DNM-NH3. R, relaxed; S, supercoiled. (c) Detection of Top2a-DNA using the ICE Assay. Genomic DNA ([…]) of H460 cells treated with drugs (50 μM, 30 min) was applied to nitrocellulose membrane and immunoblotted for Top2a. (d) Detection of Top1-DNA adducts using ICE Assay. Same procedure as (c) using 1 μg of DNA. (e) Inhibition of ETP-induced poisoning of Top2a. H460 cells treated with indicated concentrations of inhibitor for 30 min prior to treatment with ETP (50 μM). Detection of Top2α as in (c).
The in vivo complex of enzyme (ICE) assay can be used to distinguish poisons from catalytic inhibitors. The ICE assay consists of isolating the genomic DNA of cells treated with small molecules in a manner the preserves covalent DNA-protein complexes and applying it to nitrocellulose membranes. Because topoisomerase poisons stabilize the cleavage complexes, DNA-protein complexes can be detected by immunoblotting for specific topoisomerases, whereas catalytic inhibitors produce no such result. To determine if DNM derivatives are acting as poisons or catalytic inhibitors, H460 human lung cells were exposed to 50 μM of the Top2 poison ETP, Ph-6DNM-NH3, 6DNM-NH3, and 6DNM-Pyr and assessed for their ability to stabilize Top2cc. […] In a similar fashion, next investigated was the mode of Top1 inhibition using the ICE assay (FIG. 3b).

HCT-116 = assay: Antiproliferative SRB assay, HCT-116; type: cell-based; details: Homo sapiens, HCT-116, 72 h, Colon cancer, mean ± SEM
From the text: as §2

[2] = Homo sapiens, MDA-MB-231, 72 h, SRB assay, 72 hour compound exposure, read-out: MDA-MB-231 IC50
[3] = SRB assay, 72 hour compound exposure, read-out: MDA-MB-231 IC50
[4] = Homo sapiens, MDA-MB-231, 72 h, Breast cancer, SRB assay, read-out: 72 hour IC50, MDA-MB-231

T1 sequence (P11388 whole entry): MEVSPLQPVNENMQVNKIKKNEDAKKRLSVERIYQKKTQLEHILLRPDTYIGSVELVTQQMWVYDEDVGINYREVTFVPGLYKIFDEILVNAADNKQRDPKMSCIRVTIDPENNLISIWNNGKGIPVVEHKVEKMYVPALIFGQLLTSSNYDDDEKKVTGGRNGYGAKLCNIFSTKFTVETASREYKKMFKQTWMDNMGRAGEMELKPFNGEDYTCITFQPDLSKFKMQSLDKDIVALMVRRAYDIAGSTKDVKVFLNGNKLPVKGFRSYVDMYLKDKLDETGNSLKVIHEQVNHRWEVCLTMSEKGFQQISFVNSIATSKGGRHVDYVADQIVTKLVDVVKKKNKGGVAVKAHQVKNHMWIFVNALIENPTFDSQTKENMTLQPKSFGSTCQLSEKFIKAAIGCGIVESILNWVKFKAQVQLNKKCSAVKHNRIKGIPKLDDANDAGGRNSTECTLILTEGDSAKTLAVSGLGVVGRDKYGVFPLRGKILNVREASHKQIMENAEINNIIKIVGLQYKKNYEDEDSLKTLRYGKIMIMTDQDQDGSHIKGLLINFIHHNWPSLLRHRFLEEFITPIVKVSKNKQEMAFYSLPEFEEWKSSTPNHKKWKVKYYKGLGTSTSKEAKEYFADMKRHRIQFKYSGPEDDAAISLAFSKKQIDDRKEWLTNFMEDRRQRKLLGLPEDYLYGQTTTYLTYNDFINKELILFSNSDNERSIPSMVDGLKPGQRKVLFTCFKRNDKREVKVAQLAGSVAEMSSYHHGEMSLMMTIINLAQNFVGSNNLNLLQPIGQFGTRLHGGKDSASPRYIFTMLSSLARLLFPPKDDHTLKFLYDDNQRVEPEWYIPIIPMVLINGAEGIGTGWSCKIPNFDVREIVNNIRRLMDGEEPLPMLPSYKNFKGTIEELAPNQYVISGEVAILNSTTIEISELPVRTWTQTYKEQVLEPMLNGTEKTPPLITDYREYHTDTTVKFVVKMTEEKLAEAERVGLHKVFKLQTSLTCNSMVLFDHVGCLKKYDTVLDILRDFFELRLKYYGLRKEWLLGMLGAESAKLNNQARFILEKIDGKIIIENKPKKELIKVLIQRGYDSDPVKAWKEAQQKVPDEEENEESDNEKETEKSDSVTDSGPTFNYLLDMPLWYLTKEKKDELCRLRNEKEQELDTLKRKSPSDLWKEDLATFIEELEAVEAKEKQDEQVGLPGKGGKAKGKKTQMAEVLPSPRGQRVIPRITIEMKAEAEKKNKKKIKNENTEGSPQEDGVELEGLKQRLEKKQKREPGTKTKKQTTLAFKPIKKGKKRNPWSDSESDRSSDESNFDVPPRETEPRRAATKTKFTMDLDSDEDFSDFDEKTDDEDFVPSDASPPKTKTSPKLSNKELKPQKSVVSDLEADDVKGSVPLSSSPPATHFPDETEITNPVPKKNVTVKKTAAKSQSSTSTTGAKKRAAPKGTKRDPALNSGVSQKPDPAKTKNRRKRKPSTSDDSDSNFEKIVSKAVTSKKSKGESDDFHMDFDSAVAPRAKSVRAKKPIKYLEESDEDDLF

Cc1cc(=O)[nH]c2c3c4c(cc12)c(C)cc(=O)n4C(CN)CO3 (stereo not drawn) [Compound 11]
IC50 [1, 2]: 860 ± 70 nM | MIC (S. aureus): 4 µg/mL (≈ 12.8 µM) | MIC (E. coli): 2 µg/mL (≈ 6.42 µM)

Cc1cc(=O)n(C)c2c3c4c(cc12)c(C)cc(=O)n4CO3 [Compound 1]
MIC (MRSA): 0.03 µg/mL (≈ 0.106 µM) | IC50 [1, 2]: 1100 ± 200 nM | MIC (S. aureus): 2 µg/mL (≈ 7.08 µM) | MIC (E. coli): > 16 µg/mL

Cc1cc(=O)n(C)c2c3c4c(cc12)c(C)cc(=O)n4C(CC(=O)O)CO3 (stereo not drawn) [Compound 6]
MIC (MRSA): 16 µg/mL (≈ 45.2 µM) | IC50 [1, 2]: > 10000 nM | MIC (S. aureus): > 16 µg/mL | MIC (E. coli): > 32 µg/mL

Cc1cc(=O)n2c3c(c4c(cc13)c1ccccc1c(=O)n4C)OCC2 [Compound 14]
MIC (MRSA): 0.5 µg/mL (≈ 1.5 µM) | IC50 [1, 2]: 930 ± 400 nM | MIC (S. aureus): 2 µg/mL (≈ 6.02 µM) | MIC (E. coli): > 16 µg/mL

Cc1cc(=O)n(C)c2c3c4c(cc12)c(C)cc(=O)n4C(CO)CO3 (stereo not drawn) [Compound 7]
Activity against MRSA (MRSA): remains effective against MRSA | MIC (MRSA): 0.25 µg/mL (≈ 0.766 µM) | IC50 [1, 2]: > 10000 nM | MIC (S. aureus): 16 µg/mL (≈ 49 µM) | MIC (E. coli): > 16 µg/mL

Cc1cc(=O)[nH]c2c3c4c(cc12)c(C)cc(=O)n4CCO3 [Compound 10]
IC50 [1, 2]: 1600 ± 200 nM | MIC (S. aureus): 4 µg/mL (≈ 14.2 µM) | MIC (E. coli): > 32 µg/mL

Cc1cc(=O)n2c3c(c4c(cc13)c1ccccc1c(=O)n4C)OCC2CN (stereo not drawn) [Compound 17]
IC50 [1, 3]: 130 ± 30 nM | S. aureus MIC (S. aureus): 4 µg/mL | E. coli MIC (E. coli): 2 µg/mL

Cc1cc(=O)n(C)c2c3c4c(cc12)c(C)cc(=O)n4C(C(N)=O)O3 (stereo not drawn) [Compound 4]
MIC (MRSA): 4 µg/mL (≈ 12.3 µM) | IC50 [1, 2]: 8300 ± 700 nM | MIC (S. aureus): > 16 µg/mL | MIC (E. coli): > 16 µg/mL

CC(=O)NCC1COc2c3c(cc4c(C)cc(=O)n1c24)c(C)cc(=O)n3C (stereo not drawn) [Compound 8]
MIC (MRSA): 0.5 µg/mL (≈ 1.36 µM) | IC50 [1, 2]: > 10000 nM | MIC (S. aureus): 32 µg/mL (≈ 87.1 µM) | MIC (E. coli): > 16 µg/mL

COc1cccc2c1C(=O)c1c(O)c3c(c(O)c1C2=O)C[C@@](O)(C(=O)CO)C[C@@H]3O[C@H]1C[C@H](N)[C@H](O)[C@H](C)O1 [Doxorubicin, doxorubicin, reference compound]
Antiproliferative effect against MDA-MB-231 cells ([1]; FIG. 1, SRB assay, 72 hour): sensitive | IC50 [1, 4]: 21 ± 2 nM | IC50 (HL-60): 84 ± 11 nM | IC50 (ES-2): 32 ± 3 nM | IC50 (HOS): 19 ± 7 nM | IC50 (IMR32): 2.9 ± 0.4 nM | IC50 (HeLa): 24 ± 9 nM | IC50 (panel of cancer cells): 55 nM | IC50 (BT-474): 260 ± 70 nM | IC50 (Jurkat): 17 ± 3 nM | IC50 (H460): 6.1 ± 1 nM

CCOC(=O)C1Oc2c3c(cc4c(C)cc(=O)n1c24)c(C)cc(=O)n3C (stereo not drawn) [Compound 3]
Activity against MRSA (MRSA): remains effective against MRSA | MIC (MRSA): 0.5 µg/mL (≈ 1.41 µM) | IC50 [1, 2]: > 10000 nM | MIC (S. aureus): > 16 µg/mL | MIC (E. coli): > 16 µg/mL

Cc1cc(=O)n2c3c(c4c(cc13)c1ccccc1c(=O)n4C)OCC2CN (stereo not drawn) [Compound 16]
IC50 [1, 3]: 30 ± 6 nM | S. aureus MIC (S. aureus): 1 µg/mL | E. coli MIC (E. coli): 0.25 µg/mL

Cc1cc(=O)n(CCN)c2c3c4c(cc12)c(C)cc(=O)n4CCO3 [Compound 12]
IC50 [1, 2]: 220 ± 60 nM | MIC (S. aureus): 4 µg/mL (≈ 12.3 µM) | MIC (E. coli): 4 µg/mL (≈ 12.3 µM)

COc1cc([C@@H]2c3cc4c(cc3[C@@H](O[C@@H]3O[C@@H]5CO[C@@H](C)O[C@H]5[C@H](O)[C@H]3O)[C@H]3COC(=O)[C@H]23)OCO4)cc(OC)c1O [ETP, etoposide, reference compound]
Antiproliferative effect against MDA-MB-231 cells ([1]; FIG. 1, SRB assay, 72 hour): sensitive | Accumulation of Top2cc (ICE assay) (Top2cc): resulted in the accumulation of Top2cc

Cc1cc(=O)n(C)c2c3c4c(cc12)c(C)cc(=O)n4C(CN1CCCCC1)CO3 (stereo not drawn) [Compound 21]
IC50 [1, 4]: 17 ± 1 nM | IC50 [1, 2]: 17 ± 1 nM | IC50 (HL-60): 55 ± 11 nM | IC50 (HCT-116): 8 ± 1 nM | MIC (S. aureus): 0.5 µg/mL (≈ 1.27 µM) | IC50 (ES-2): 22 ± 6 nM | MIC (E. coli): 4 µg/mL (≈ 10.2 µM) | IC50 (HOS): 21 ± 3 nM | IC50 (IMR32): 6 ± 1.6 nM | IC50 (HeLa): 46 ± 2 nM | IC50 (panel of cancer cells): 31 nM | IC50 (BT-474): 90 ± 10 nM | IC50 (Jurkat): 33 ± 4 nM | IC50 (H460): 11 ± 2 nM

Cc1cc(=O)n(-c2ccccc2)c2c3c4c(cc12)c(C)cc(=O)n4C(CN)CO3 (stereo not drawn) [Compound 13]
IC50 [1, 2]: 1600 ± 600 nM | MIC (S. aureus): > 16 µg/mL | MIC (E. coli): > 16 µg/mL

Cc1cc(=O)n2c3c(c4c(cc13)c1ccccc1c(=O)n4C)OCC2CN1CCCCC1 (stereo not drawn) [Compound 23]
IC50 [1, 4]: 79 ± 7 nM | IC50 [1, 2]: 79 ± 7 nM | IC50 (HL-60): 440 ± 130 nM | IC50 (HCT-116): 79 ± 10 nM | MIC (S. aureus): 0.5 µg/mL (≈ 1.16 µM) | IC50 (ES-2): 67 ± 8 nM | MIC (E. coli): 2 µg/mL (≈ 4.66 µM) | IC50 (HOS): 55 ± 1 nM | IC50 (IMR32): 20 ± 0.2 nM | IC50 (HeLa): 136 ± 5 nM | IC50 (panel of cancer cells): 214 nM | IC50 (BT-474): 1000 ± 100 nM | IC50 (Jurkat): 240 ± 40 nM | IC50 (H460): 24 ± 2 nM

Cc1cc(=O)n(C)c2c3c4c(cc12)c(C)cc(=O)n4C(C(=O)O)O3 (stereo not drawn) [Compound 5]
MIC (MRSA): 2 µg/mL (≈ 6.13 µM) | IC50 [1, 2]: 3600 ± 600 nM | MIC (S. aureus): > 32 µg/mL | MIC (E. coli): > 32 µg/mL

Cc1cc(=O)n(C)c2c3c4c(cc12)c(C)cc(=O)n4CCO3 [Compound 2]
MIC (MRSA): 0.06 µg/mL (≈ 0.202 µM) | Antiproliferative effect against MDA-MB-231 cells ([1]; FIG. 1, SRB assay, 72 hour, listed as 6DNM): produces quantitative cell death; also recorded: equipotent to the clinical trial compound vosoraxin | IC50 [1, 2]: 730 ± 90 nM | MIC (S. aureus): 1 µg/mL (≈ 3.37 µM) | MIC (E. coli): > 16 µg/mL

Cc1cc(=O)n(C)c2c3c4c(cc12)c(C)cc(=O)n4C(CN)CO3 (stereo not drawn) [Compound 18]
IC50 [1, 3]: 200 ± 10 nM | S. aureus MIC (S. aureus): 0.5 µg/mL | E. coli MIC (E. coli): 0.25 µg/mL

Cc1cc(=O)n(C)c2c3c4c(cc12)c(C)cc(=O)n4C(CN)CO3 (stereo not drawn) [Compound 19]
IC50 [1, 3]: 4000 ± 800 nM | S. aureus MIC (S. aureus): 32 µg/mL | E. coli MIC (E. coli): >16 µg/mL

O=C(O)c1cn(C2CC2)c2cc(N3CCNCC3)c(F)cc2c1=O [ciprofloxacin, reference compound]
Antiproliferative effect against MDA-MB-231 cells ([1]; doses as high as 50 μM): only minimal effects

Reference: patent US11274106B2, “Topoisomerase inhibitors with antibacterial and anticancer activity” (THE BOARD OF TRUSTEES OF THE UNIVERSITY OF ILLINOIS, priority 2017, dated 2022)
